Assay results: US20050042711A1, “Field test for fungi” (GEORGE MASON UNIVERSITY, priority 2003, published 2005)

How the values were obtained:
[1] = tested on: bacteria inoculated into the medium; details: nicotinic acid 0.1 M; three to four days
Description: (§1) The base ISTOR medium has the following composition:
(§2) The medium was prepared in potassium phosphate buffer at pH 5.7.

fungi tested = details: nicotinic acid 0.1 M; three to four days
Description: as §1, §2

With `O=C(O)c1cccnc1` [nicotinic acid] the growth of bacteria [1] was “none of the bacteria inoculated into the medium grew”, the growth of fungi (fungi tested) was “all of the fungi tested exhibited growth” and the solubility in water was “not very soluble in water”.
